These results are taken from paper PMC5967867, “An NMDAR positive and negative allosteric modulator series share a binding site and are interconverted by methyl groups” (eLife, 2018).

As usually defined, the IC50 is the concentration that gives 50% inhibition. The term EC50 denotes the concentration needed to bring the measured effect to its halfway point. Broadly, the half-life is how long it takes for the measured level to halve. One may read the melting point as the temperature of the solid-liquid transition.

Each structure is given as a SMILES string. Read-outs that look alike come from different tables or passages of the source. Marks after values point to notes of the source that are not given here.

The target in series [1] is GluN1/GluN2A NMDARs (Rattus norvegicus, UniProt P35439+Q00959). The series can be described thus: Two-electrode voltage-clamp recordings, Xenopus laevis oocytes expressing GluN1/GluN2A. The note with it: for IC50: glutamate/glycine 100/30 µM; for EC50: read-out: EC50 (µM) [conf. int.]; for Emax: read-out: Maximal Degree of Modulation (% of control). Format: cell-based. The procedure:
(§1) cDNAs for rat wild type NMDAR subunits GluN1-1a (GenBank U11418, U08261; hereafter GluN1 or GluN1a), GluN1-1b (U08263, hereafter GluN1b), GluN2A (D13211), GluN2B (U11419), GluN2C (M91563), and GluN2D (L31611, modified as described in [Monyer et al., 1994]) were provided by Drs. S. Heinemann (Salk Institute), S. Nakanishi (Kyoto University), and P. Seeburg (University of Heidelberg). Site-directed mutagenesis was conducted using the QuikChange kit (Agilent Technologies, Santa Clara, CA) following the recommended protocol. DNA sequencing was used to verify all mutations. The amino acid numbering system started with the initiating methionine as residue number one. For expression in Xenopus laevis oocytes, cDNA constructs were linearized by restriction enzymes, and subsequently used to synthesize in vitro cRNAs following the manufacturer’s protocol (mMessage mMachine, Ambion, ThermoFisher Scientific, Waltham, MA).
Xenopus laevis stage VI oocytes (Ecocyte Biosciences, Austin, TX) were injected as previously described ([Hansen et al., 2013]) 2–7 days prior to recording with cRNA encoding the NMDAR subunits and stored at 15°C in media containing (in mM) 88 NaCl, 2.4 NaHCO3, 1 KCl, 0.33 Ca(NO3)2, 0.41 CaCl2, 0.82 MgSO4, 5 Tris-HCl; pH was adjusted to 7.4 with NaOH and the solution supplemented with 1 U/mL penicillin, 0.1 mg/mL gentamicin sulfate, and 1 μg/mL streptomycin. Two-electrode voltage-clamp recordings were performed at room temperature (21–23°C) using different internal solutions for voltage and current electrodes (0.3 M and 3.0 M KCl, respectively). All extracellular solutions were made from a solution containing (in mM) 90 NaCl, 1 KCl, 10 HEPES, 0.5 BaCl2, 0.01 EDTA (pH 7.4 with NaOH). Experiments were performed using an eight port Modular Valve Positioner (Hamilton Company, Reno, NV) and controlled by custom software (Easy Oocyte, Emory University, Atlanta, GA)to exchange solutions. Oocyte currents were recorded at a holding potential of −40 mV using a two-electrode voltage-clamp amplifier (OC-725B or OC-725C, Warner Instruments, Hamden, CT). […] In MTSEA experiments, fresh MTSEA solutions (0.2 mM) were prepared and utilized in less than 30 min to limit compound degradation.
Measurements are given as mean ± SEM unless otherwise indicated. The number of replicate experiments used was chosen to ensure a power level of at least 0.80 when α = 0.05 and when detecting appropriate effect sizes. EC50 and IC50 values and confidence intervals reported were calculated by averaging the log(EC50) or log(IC50) value, determining confidence intervals for mean log(EC50) or log(IC50), and converting back to units of molarity. Statistical significance evaluations (α set to 0.05) were performed using a one-way ANOVA with Dunnett’s multiple comparison test, a paired t–test, or other appropriate tests as described.
(In two-electrode clamp one electrode senses voltage and the other passes current.)

The nature of series [2]: Racemization time course of enantiomers in working solution (functional assessment). Format: physicochemical. The note with it: standard experimental (aqueous working) solution. The text has this: The enantiomers of EU1794-27 were separated to determine whether the racemic activity reflected the actions of only one enantiomer (see Supplemental methods). (-)-EU1794-27 potentiated NMDAR responses similarly to the racemic mixture (Figure 8—figure supplement 1A, Table 7). […] We previously reported ([Katzman et al., 2015]) that purified enantiomers were likely to racemize in aqueous solutions, which should proceed by a first-order reaction dependent on multiple factors such as ionic strength, pH, buffer, etc. ([Smith et al., 1978]). Thus, to quantitatively determine if racemization would impact our experiments using the enantiomers, we performed a functional assessment of this property in our standard experimental solution. […] Both enantiomers of EU1794-4 inhibited NMDAR responses, but with different potencies (Figure 8—figure supplement 1C, Supplementary File 2). […] All enantiomer studies, other than the racemization time-course, were performed rapidly to minimize any racemization, being completed in less than 80 min after making the aqueous solution of modulator.
Figure 8. The enantiomers of EU1794-4 and EU1794-27 have different action. […] (C) Single concentration competition experiments illustrating an interaction between both enantiomers of EU1794-4 (+and -) and the positive modulating enantiomer of EU1794-27 (-) at GluN1/GluN2D. […] Figure 8—figure supplement 1. […]

In series [3] the test system is diheteromeric NMDARs. The series can be described thus: Two-electrode voltage-clamp recordings, statements across all diheteromeric NMDARs. It is filed as cell-based, rat. The procedure:
as §1
Xenopus laevis stage VI oocytes (Ecocyte Biosciences, Austin, TX) were injected as previously described ([Hansen et al., 2013]) 2–7 days prior to recording with cRNA encoding the NMDAR subunits and stored at 15°C in media containing (in mM) 88 NaCl, 2.4 NaHCO3, 1 KCl, 0.33 Ca(NO3)2, 0.41 CaCl2, 0.82 MgSO4, 5 Tris-HCl; pH was adjusted to 7.4 with NaOH and the solution supplemented with 1 U/mL penicillin, 0.1 mg/mL gentamicin sulfate, and 1 μg/mL streptomycin. Two-electrode voltage-clamp recordings were performed at room temperature (21–23°C) using different internal solutions for voltage and current electrodes (0.3 M and 3.0 M KCl, respectively). All extracellular solutions were made from a solution containing (in mM) 90 NaCl, 1 KCl, 10 HEPES, 0.5 BaCl2, 0.01 EDTA (pH 7.4 with NaOH). Experiments were performed using an eight port Modular Valve Positioner (Hamilton Company, Reno, NV) and controlled by custom software (Easy Oocyte, Emory University, Atlanta, GA)to exchange solutions. Oocyte currents were recorded at a holding potential of −40 mV using a two-electrode voltage-clamp amplifier (OC-725B or OC-725C, Warner Instruments, Hamden, CT). […]

The mark [4] stands for this setting: no second modulator (+EU1794-27 0 µM), read-out: IC50 (µM) [conf. int.].
The mark [5] stands for this setting: saturating glutamate/glycine 100/30 µM, mean [95% CI], - = not fit, response at 30 µM differed by no more than 15% from control.
Where [6] appears, read: saturating glutamate/glycine 100/30 µM, mean ± SEM.
Setting [7] is: sub-saturating glutamate/glycine 0.6/0.2 µM.
[8] abbreviates: sub-saturating glutamate/glycine 1/0.3 µM.
Setting [9] is: sub-saturating glutamate/glycine 2/0.6 µM.

Chain of GluN1/GluN2A NMDARs (Q00959 23-1464, other chains not shown): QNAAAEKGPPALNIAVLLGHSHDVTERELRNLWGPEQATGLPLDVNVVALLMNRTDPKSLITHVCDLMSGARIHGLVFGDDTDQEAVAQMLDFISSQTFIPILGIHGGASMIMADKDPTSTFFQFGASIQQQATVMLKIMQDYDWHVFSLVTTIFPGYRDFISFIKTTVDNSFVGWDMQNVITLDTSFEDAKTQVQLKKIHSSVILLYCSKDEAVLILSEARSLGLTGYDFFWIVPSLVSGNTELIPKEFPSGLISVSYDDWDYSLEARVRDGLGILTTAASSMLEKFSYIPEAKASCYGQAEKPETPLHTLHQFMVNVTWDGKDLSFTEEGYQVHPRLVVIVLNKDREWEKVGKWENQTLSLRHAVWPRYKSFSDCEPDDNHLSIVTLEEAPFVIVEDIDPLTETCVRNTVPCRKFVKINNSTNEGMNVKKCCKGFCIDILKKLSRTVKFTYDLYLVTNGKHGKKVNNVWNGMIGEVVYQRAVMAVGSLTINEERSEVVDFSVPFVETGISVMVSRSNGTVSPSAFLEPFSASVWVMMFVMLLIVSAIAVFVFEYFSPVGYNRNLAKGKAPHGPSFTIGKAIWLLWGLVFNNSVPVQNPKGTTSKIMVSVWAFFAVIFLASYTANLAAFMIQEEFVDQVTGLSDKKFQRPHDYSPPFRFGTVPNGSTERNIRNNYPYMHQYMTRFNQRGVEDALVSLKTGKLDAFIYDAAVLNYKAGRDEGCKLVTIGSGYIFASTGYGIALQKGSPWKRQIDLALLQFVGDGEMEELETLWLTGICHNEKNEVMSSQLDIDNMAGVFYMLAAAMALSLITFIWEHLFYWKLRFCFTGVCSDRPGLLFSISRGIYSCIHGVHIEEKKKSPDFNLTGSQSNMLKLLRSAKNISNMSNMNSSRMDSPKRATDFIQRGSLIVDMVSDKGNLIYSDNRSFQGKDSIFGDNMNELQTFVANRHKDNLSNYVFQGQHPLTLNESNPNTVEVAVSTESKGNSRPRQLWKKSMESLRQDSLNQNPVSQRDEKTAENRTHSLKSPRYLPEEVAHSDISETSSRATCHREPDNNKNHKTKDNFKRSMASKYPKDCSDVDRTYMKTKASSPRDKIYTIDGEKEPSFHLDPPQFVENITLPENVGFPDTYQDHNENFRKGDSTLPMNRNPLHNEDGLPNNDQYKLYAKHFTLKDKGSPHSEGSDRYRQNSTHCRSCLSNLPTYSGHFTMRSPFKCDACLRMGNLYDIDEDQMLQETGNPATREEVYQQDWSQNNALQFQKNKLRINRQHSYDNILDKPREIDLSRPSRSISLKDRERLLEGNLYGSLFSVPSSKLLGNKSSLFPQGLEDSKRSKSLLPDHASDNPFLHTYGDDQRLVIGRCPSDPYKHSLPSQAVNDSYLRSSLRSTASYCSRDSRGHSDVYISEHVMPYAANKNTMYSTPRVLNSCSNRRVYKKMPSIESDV

On to `CCOC(=O)c1c(NC(=O)CC2SC(=N)NC2=O)sc2c1CCC(C)C2` (stereo not drawn) [EU1794-2, ethyl 2-(2-(2-imino-4-oxothiazolidin-5-yl)acetamido)-6-methyl-4,5,6,7-tetrahydrobenzo[b]thiophene-3-carboxylate], for which the IC50 in series [1] (+EU1794-27 3 µM, read-out: EU1794-2 IC50 (µM) [conf. int.]) came out at 2.5 µM; in series [1] (+EU1794-27 10 µM, read-out: EU1794-2 IC50 (µM) [conf. int.]), 3.6 µM; in series [1] (+EU1794-27 20 µM, read-out: EU1794-2 IC50 (µM) [conf. int.]), 8 µM; in series [1] (setting [4]), 0.6 µM. Moreover, the EC50 in series [1] (setting [5]) worked out at 0.6 µM; in series [1] (setting [7]) it was 1.8 µM. Besides, the Emax stood at 6% in series [1] (setting [6]) and 37% in series [1] (setting [7]).
Regarding `CCOC(=O)c1c(NC(=O)CC2SC(=N)NC2=O)sc2c1CCCC2` (stereo not drawn) [EU1794-4, ethyl 2-(2-(2-imino-4-oxothiazolidin-5-yl)acetamido)-4,5,6,7-tetrahydrobenzo[b]thiophene-3-carboxylate], the melting point is 163 °C (dec.). Besides, in series [1] (control vs 10 µM EU1794-4), the “Fold Difference (glutamate EC50)” value was 2.4^† and the “Fold Difference (glycine EC50)” value is 2.8^†. For the same compound, the IC50 in series [1] (setting [4]) was found to be 2.2 µM. Moreover, the EC50 in series [1] (setting [5]) is 2.2 µM. Moreover, the Emax in series [1] (setting [6]) is 32%. Moreover, in series [1] (setting [8]), the EC50 worked out at 3.9 µM and the Emax was determined as 500%. Moreover, the half-life at 10 µM in series [2] was found to be 3.27 h. Further, in series [3] (inhibition, across subtypes), the “potency of (-) enantiomer relative to (+) enantiomer” value is listed as 3–10 fold. Moreover, the “residual current at saturating levels” value in series [3] (saturating EU1794-4) is given as 30–60%. The saturated inhibition in series [3] (saturating modulator and agonist, across NMDAR subtypes) was 40–70 % of control.
In the case of `CC(C)(C)OC(=O)c1c(NC(=O)CC2SC(=N)NC2=O)sc2c1CCCC2` (stereo not drawn) [EU1794-27, tert-butyl 2-(2-(2-imino-4-oxothiazolidin-5-yl)acetamido)-4,5,6,7-tetrahydrobenzo[b]thiophene-3-carboxylate], in series [1] (control vs 10 µM EU1794-27), the “Fold Difference (glutamate EC50)” value is on record as 2.3^† and the “Fold Difference (glycine EC50)” value was 1.6. Further, in series [1] (setting [5]), the EC50 came out at 7.4 µM. The Emax in series [1] (setting [6]) is 52%. Further, in series [1] (setting [9]), the half-maximal effective concentration (EC50) is 8.1 µM and the Emax is 340%. The half-life at 10 µM in series [2] was determined as 3.28 h.
